The nature of data set [1]: physchem.
Procedure: (§1) Samples are stirred for 20 h and filtered through a 0.7 μm GF filter. The filtrate was analyzed by HPLC assay for concentration against DMSO standard curve.[40]
For data set [2], the system named is M. tuberculosis H37Rv. Briefly: microbe, parasite or virus in culture. The settings on record: for MIC90 / IC90 / MIC: Mycobacterium tuberculosis, H37RV; for MIC90: read-out: MIC (MIC90); for IC90: read-out: TB-IC90_OD GEOM_MEAN. Type of data set: cell-based, Mycobacterium tuberculosis.
Data set [3] concerns Vero cells. Briefly: cells. The settings on record: Chlorocebus sabaeus, read-out: VERO IC50.
Procedure: (§2) Compounds were solubilized in DMSO and assayed as a 10-point 3-fold serial dilution. Compounds were incubated with cells for 2 days at 37 °C, 5% CO2. CellTiter-Glo Reagent (Promega) was added and relative luminescent units (RLU) measured.
The conditions of data set [4]: for Cli mouse / scaled Clpre: female, CD1, mouse, pH 7.4; for CL mouse MEAN / in vitro mouse Clint: microsomes.
Data set [5] deals with Madin Darby Canine Kidney (MDCK). Particulars: for P-glycoprotein (P-gp) efflux (in words) / permeability (in words): MDCK-MDR1; for P-gp Efflux B→ A/A → B: dog, MDCK.
A short description of a further data set: in vitro. Particulars: dog, MDCK-MDR1.
Data set [6] can be described thus: physchem. This is another data set of the same source.
Data set [7] can be described thus: physchem. The source holds these as a separate data set.
For data set [8], the system named is Vero cells. Particulars: read-out: VERO IC50.
Procedure: as §2
Data set [9] can be described thus: in vivo. The settings on record: Sprague-Dawley, rat; for AUC(0-t) at 24 h: AUC 0–24.
Procedure: (§3) Test compound was dosed orally by gavage at 5 mg of free base/kilogram (dose volume 5 mL/kg; dose vehicle 1.0% carboxy methyl cellulose, CMC) to male Sprague–Dawley Rats (n = 1 per time point). At predetermined time points, blood samples (100 μL) were taken from the hepatic portal vein into a tube containing EDTA. Immediately afterward, the remaining blood was taken by cardiac puncture into a separate tube containing EDTA to determine the concentration of compound reaching the systemic circulation. The blood was mixed with two volumes of distilled water and stored frozen until UPLC/MS/MS analysis. Pharmacokinetic parameters were derived from the blood concentration time curve using PK Solutions software v 2.0 (Summit Research Services, USA).
The subject of data set [10] is M. tuberculosis H37Rv. Further details: species or system Mycobacterium tuberculosis. Particulars: in vivo.
Data set [11] in a line: in vivo. Particulars: female, C57 Black, mouse; for AUC: iv, 3 mg/kg; for bioavailability: po, 10 mg/kg.
Procedure: (§4) Test compound was dosed as a bolus solution intravenously at 3 mg of free base/kilogram (dose volume 5 mL/kg; dose vehicle Saline or 10% DMSO; 40% PEG400; 50% saline) to female C57 Black (n = 3) or dosed orally by gavage as a solution at 10 mg of free base/kilogram (dose volume 10 mL/kg; dose vehicle 10% DMSO; 40% PEG400; 50% distilled water) to female C57 Black (n = 3/dose level). Blood samples were taken from each mouse tail vein at predetermined time points postdose, mixed with two volumes of distilled water, and stored frozen until UPLC/MS/MS analysis. Pharmacokinetic parameters were derived from the blood concentration time curve using PK Solutions software v 2.0 (Summit Research Services, USA).
For data set [12] the following is noted: pH 2/6/7.4.
Procedure: as §1
For data set [13] the following is noted: Sprague-Dawley, rat, in vivo.
Procedure: as §3
For data set [14] the following is noted: female, C57 Black, mouse, in vivo, iv, 3 mg/kg.
Procedure: as §4
The conditions of data set [15]: C57 Black, mouse, in vivo, po.
Procedure: Analysis of 37 in Mouse Blood samples (10mg/kg PO and 3mg/kg IV)
Data set [16] concerns M. tuberculosis H37Rv. Format: cell-based, Mycobacterium tuberculosis.

Usually solubility stands for the concentration that dissolves in the medium under given conditions. The low end stands for little dissolved substance, the high end for much dissolved substance. As a reminder, the IC50 is the concentration that inhibits the measured activity by half. What is called Papp A→B is the apparent permeability from the apical to the basolateral side of a cell layer. High values mean fast passage, low ones slow passage. In general, Papp B→A refers to the apparent permeability from the basolateral to the apical side of a cell layer. In general, chromatographic logD refers to lipophilicity estimated from chromatographic retention. One may read the AUC(0-t) as the area under the concentration-time curve up to a stated or last time point. A high value points to high exposure. By Tmax is commonly meant the time from dosing to the highest level. As usually defined, the Cmax is the maximum level reached in the sampled fluid or tissue. Usually AUC stands for the area under the concentration-time curve, a measure of exposure. By bioavailability is commonly meant the share of a dose that reaches the circulation, judged against a reference dose that is usually intravenous. A higher bioavailability goes with good availability.

In brackets after ≈: the same amount, converted by molar mass. Several values for one entry are separate records, joined by “and”; a condition that tells them apart may be missing. Equal entries are not always repeated. Where two headings read alike, the source gives them in different places.

The compound `NC(=O)c1sc(CN2CCOCC2)cc1OCCc1ccccc1` [Compound 18, 5-(Morpholinomethyl)-3-(2-phenylethoxy)thiophene-2-carboxamide] registered a solubility in “physchem [1]” (pH 2) of 700 µg/mL (≈ 2020 µM). The compound also had a solubility in “physchem [1]” (pH 7.4) of 300 µg/mL (≈ 866 µM). Moreover, in the data set on M. tuberculosis H37Rv [2], the “antitubercular whole cell activity (in words)” value is listed as “not active”, the MIC90 was above 20 µM and the IC90 is above 20 µM. Also, the concentration for half-maximal inhibition (IC50) in the data set with Vero cells [3] is above 100 µM. In data set [4], the Cli mouse is recorded as 3 mL.min^–1.g^–1 and the “CL mouse MEAN” value came out at 3.219 mL/min/g. Also, in data set [5], the “P-glycoprotein (P-gp) efflux (in words)” value is reported as “no likely P-glycoprotein (P-gp) efflux issues”, the “permeability (in words)” value is on record as “good permeability” and the “P-gp Efflux B→ A/A → B” value came out at 0.8. Moreover, in the data set “in vitro”, the apparent permeability from apical to basolateral (Papp A→B) came to 62 ×10⁻⁶ cm/s and the apparent permeability from basolateral to apical (Papp B→A) turned out to be 53 ×10⁻⁶ cm/s. Also, the solubility in “physchem [6]” (pH 2.4) is 1700 µg/mL (≈ 4910 µM). In “physchem [7]”, this compound displayed a chromatographic logD of 1.71.
`CC(=O)c1sc(N2CCOCC2)cc1OCCc1ccccc1` [Compound 20, 1-[5-Morpholino-3-(2-phenylethoxy)-2-thienyl]ethanone]: the solubility in the data set “physchem [1]” (pH 2) came out at 600 µg/mL (≈ 1810 µM); in the data set “physchem [1]” (pH 7.4) it was 30 µg/mL (≈ 90.5 µM); in the data set “physchem [6]” (pH 2.4), 400 µg/mL (≈ 1210 µM). The MIC90 in the data set with M. tuberculosis H37Rv [2] was found to be 0.42 µM (≈ 0.139 µg/mL). In addition, the IC90 with M. tuberculosis H37Rv [2] was 0.424 µM. The half-inhibitory concentration (IC50) in the data set with Vero cells [3] was determined as 84 µM; in the data set with Vero cells [8], 82.2 µM. Besides, in data set [4], the Cli mouse was 41 mL.min^–1.g^–1. For the same compound, in [4], the “CL mouse MEAN” value stood at 41.42 mL/min/g. For the same compound, the chromatographic logD in “physchem [7]” amounted to 2.78.
In the case of `NC(=O)c1sc(N2CCOCC2)cc1OCCc1ccc(OC(F)(F)F)cc1` [Compound 37, 5-Morpholino-3-[2-[4-(trifluoromethoxy)phenyl]ethoxy]thiophene-2-carboxamide], in “in vivo [9]” (iv, 1 mg/kg), the exposure AUC(0-t) at 24 h is 550 ng·h/mL. Besides, in the data set “in vivo [9]” (male, po, 5 mg/kg), the Tmax is 1 h and the AUC(0-t) at 24 h was 583 ng·h/mL. In “in vivo [9]” (male, po, 5 mg/kg, Cmax), this compound returned a peak concentration (Cmax) of 200 ng/mL. In the data set with M. tuberculosis H37Rv [10], the “growth of the bacteria in the lungs compared to untreated mice (in words)” value is given as “able to inhibit the growth of the bacteria in the lungs”; the “log CFUs per mouse (lungs), individual mice” value is 6.1 log CFU and 5.8 log CFU; the “log CFUs per mouse (lungs), mean” value stood at 6.0 log CFU. Also, the “log reduction of colony forming unit (CFU) counts in the lungs” value with M. tuberculosis H37Rv [10] (po, 100 mg/kg) is 0.8 log. Moreover, in “in vivo [11]”, the area under the curve (AUC) was 1730 ng·h/mL and the bioavailability was 18%. Further, the “solubility in HTSA (in words)” value in [12] is “poor solubility”. Further, the solubility in the data set “physchem [1]” (pH 2) was 2 µg/mL (≈ 4.8 µM). This compound also yielded a solubility in “physchem [1]” (pH 6) of 1 µg/mL (≈ 2.4 µM). In the data set “physchem [1]” (pH 7.4), the concentration in solution (solubility) was 1 µg/mL (≈ 2.4 µM). Moreover, the MIC with M. tuberculosis H37Rv [2] (read-out: H37Rv MIC) amounted to 0.083 µg/mL. In the data set with M. tuberculosis H37Rv [2], the MIC90 was determined as 0.24 µM (≈ 0.0999 µg/mL) and the IC90 was 0.217 µM. The MIC in the data set on M. tuberculosis H37Rv [2] (read-out: MIC WT) turned out to be 0.24 µM. The IC50 in the data set on Vero cells [3] was found to be 39 µM. Besides, in data set [4], the Cli mouse was found to be 8 mL.min^–1.g^–1, the “scaled Clpre” value was determined as 76 mL/min/kg, the “CL mouse MEAN” value is on record as 8.159 mL/min/g and the “in vitro mouse Clint” value came to 8 mL/min/g. Besides, in data set [5], the “P-glycoprotein (P-gp) efflux (in words)” value was “no likely P-glycoprotein (P-gp) efflux issues”, the “permeability (in words)” value is on record as “good permeability” and the “P-gp Efflux B→ A/A → B” value is on record as 0.8. For the same compound, in data set [13] (iv, 1 mg/kg), the Clb was found to be 30 and the T1/2 is given as 0.5 h. In data set [13] (male, po, 5 mg/kg), this compound came in with a Cmax of 140 ng/mL and an F of 12%. Also, the “AUC 0–24” value in data set [13] (male, po, 5 mg/kg, 24 h) is recorded as 19. Further, the half-maximal inhibitory concentration (IC50) with Vero cells [8] was determined as 37 µM. In “in vitro”, this compound yielded a Papp A→B of 25 ×10⁻⁶ cm/s and a Papp B→A of 20 ×10⁻⁶ cm/s. In data set [14], this compound registered a CLB of 29 mL/min/kg. Besides, in data set [15], the “% Peak Area, metabolite A N or S-oxide” value came to 3%; the “% Peak Area, metabolite B De-ethylation + oxidation” value came to 3%; the “% Peak Area, metabolite C De-ethylation” value was found to be 2%; the “% Peak Area, metabolite D Oxidation (x3)” value is 6%. The “% Peak Area, metabolite E Hydroxylation” value in data set [15] worked out at 27%. In “physchem [7]”, this compound showed a chromatographic logD of 2.68.
In the case of `CC1(COc2cc(N3CCOCC3)sc2C(N)=O)COC1` [Compound 46, 3-((3-Methyloxetan-3-yl)methoxy)-5-morpholinothiophene-2-carboxamide], the bioavailability in the data set “in vivo [11]” came to 38%. In the data set on M. tuberculosis H37Rv [2], the “antitubercular whole cell activity (in words)” value is listed as “no measurable MIC activity” and the MIC90 was above 20 µM. Besides, the MIC in the data set with M. tuberculosis H37Rv [2] (read-out: H37Rv MIC) is above 6.2 µg/mL. The half-inhibitory concentration (IC50) in the data set on Vero cells [3] was above 100 µM. Besides, in data set [4], the Cli mouse is 2.1 mL.min^–1.g^–1, the “scaled Clpre” value is 56 mL/min/kg, the “CL mouse MEAN” value came to 2.051 mL/min/g and the “in vitro mouse Clint” value came out at 2.1 mL/min/g. In addition, in data set [5], the “P-glycoprotein (P-gp) efflux (in words)” value was “no likely P-glycoprotein (P-gp) efflux issues”, the “permeability (in words)” value was “good permeability” and the “P-gp Efflux B→ A/A → B” value came to 2. In the data set “in vitro”, the apparent permeability from apical to basolateral (Papp A→B) was determined as 19 ×10⁻⁶ cm/s and the Papp B→A worked out at 35 ×10⁻⁶ cm/s. Also, in [14], the CLB amounted to 31 mL/min/kg and the T1/2 stood at 0.7 h. In the data set “physchem [7]”, the chromatographic logD was found to be 0.707.
Take `NC(=O)c1cc(N2CCOCC2)ccc1OCCc1ccccc1` [Compound 55, 5-Morpholino-2-(2-phenylethoxy)benzamide]: in “in vivo [11]”, the AUC is 1590 ng·h/mL and the bioavailability came to 5%. The compound also showed a solubility in the data set “physchem [1]” (pH 2) of 600 µg/mL (≈ 1840 µM). The solubility in “physchem [1]” (pH 6) stood at 300 µg/mL (≈ 919 µM). For the same compound, the concentration in solution in “physchem [1]” (pH 7.4) (solubility) was 300 µg/mL (≈ 919 µM). The MIC in the data set on M. tuberculosis H37Rv [2] (read-out: H37Rv MIC) turned out to be 1.9 µg/mL. For the same compound, in the data set with M. tuberculosis H37Rv [2], the MIC90 stood at 5.7 µM (≈ 1.86 µg/mL). Besides, in the data set on Vero cells [3], the IC50 is above 100 µM. In [4], the Cli mouse stood at 3.8 mL.min^–1.g^–1, the “scaled Clpre” value is 68 mL/min/kg, the “CL mouse MEAN” value was 3.79 mL/min/g and the “in vitro mouse Clint” value amounted to 4 mL/min/g. For the same compound, in the data set “physchem [6]” (pH 2.4), the solubility stood at 1300 µg/mL (≈ 3980 µM). This compound also had a solubility in the data set “physchem [6]” (pH 6) of 300 µg/mL (≈ 919 µM). Also, in data set [14], the CLB came out at 32 mL/min/kg and the T1/2 came to 1.2 h. The same compound registered a chromatographic logD in “physchem [7]” of 1.9.
`CCc1nc2ccc(Cl)cn2c1C(=O)NCc1ccc(N2CCC(c3ccc(OC(F)(F)F)cc3)CC2)cc1` [Compound Q203]: the “ATP levels versus growth (OD590)” value with M. tuberculosis H37Rv [16] is recorded as “depletion of ATP occurred at lower concentrations than required to inhibit growth”.
Same read-out and setting: the same measure for `CO[C@H]1/C=C/O[C@@]2(C)Oc3c(C)c(O)c4c(O)c(c(/C=N/N5CCN(C)CC5)c(O)c4c3C2=O)NC(=O)/C(C)=C\C=C\[C@H](C)[C@H](O)[C@@H](C)[C@@H](O)[C@@H](C)[C@H](OC(C)=O)[C@@H]1C` [rifampicin]: “correlated with growth”.
